# Measured values reported in patent US20230250083A1, “CRYSTALS” (NIPPON SHINYAKU CO., LTD., priority 2017, published 2023).
# Columns and labels:
# Format in all cases: physicochemical
# [1] = Solvent-mediated transformation test; conditions: for Crystal form after 1 day / Crystal form after 5 days: stirred at room temperature
# Method: Each solvent was added to the Form-I crystal of the compound A, and the mixture was stirred at room temperature for 24 hours, and then, insolubles was filtered to prepare a saturated solution. Mixed crystals (about 10 mg) in which the Form-I crystal and the Form-II crystal were mixed at 1:1 were added to each solution, and the resultant mixture was stirred at room temperature for 5 days. Formed crystals were collected through filtration, and the crystal form thereof was confirmed.
# [2] = Crystallization experiments using various solvents, overall outcome; conditions: operation procedures 1 to 4, Tables 1 to 3
# Method: Each of various solvents was added to the Form-I crystal of the present invention (several mg), crystals of the compound A were precipitated according to the following operation procedures, and the crystal form of the precipitated crystals was confirmed. The results of the operation procedures 1 to 3 are shown in Table 1 and Table 2, and the results of the operation procedure 4 are shown in Table 3. The symbol “-” in Table 1 to Table 3 means that no precipitate was obtained.
# [3] = Stability test (sealed glass bottle, 90° C.)
# Method: The Form-II crystal of the compound A was put in a glass bottle, and the glass bottle was tightly sealed and stored at 90° C. The sample was taken out after 1 day, 3 days, and 7 days, and was dissolved in methanol at a concentration of 1 mg/mL. Each solution was subjected to measurement of analogs by HPLC. As for the crystals after 7 days, the crystal form was confirmed.
# [4] = 90° C., after 1 day, tightly sealed glass bottle
# [5] = 90° C., after 3 days, tightly sealed glass bottle
# [6] = 90° C., after 7 days, tightly sealed glass bottle
# [7] = acetone:water 20:80 saturated with Form-I
# [8] = acetonitrile saturated with Form-I
structure (smiles),measurement,setting,value
C[C@H](Nc1cc(-c2cnn(C)c2)cc(Nc2cnccn2)n1)c1ccc(F)cc1.O=C(O)/C=C\C(=O)O [Form-I crystal of the present invention],thermodynamic stability in solvent,"[1]; acetonitrile, ethyl acetate, water-containing acetone at room temperature",thermodynamically stable
same,crystallization from various solvents (which form crystallizes),[2],preferentially crystallized
C[C@H](Nc1cc(-c2cnn(C)c2)cc(Nc2cnccn2)n1)c1ccc(F)cc1.O=C(O)/C=C\C(=O)O [Form-II],crystallization from various solvents (which form crystallizes),[2]; listed as Form-II crystal of the present invention,crystallized only in water-containing systems
same,Appearance,[3]; [4],no change
same,HPLC area (%),[3]; [4],99.7%
same,Appearance,[3]; [5],no change
same,HPLC area (%),[3]; [5],99.8%
same,Appearance,[3]; [6],no change
same,Crystal form after 7 days,[3]; [6],Form-II
same,HPLC area (%),[3]; [6],99.6%
same,Appearance,[3]; Before storage,pale yellow crystal
same,HPLC area (%),[3]; Before storage,99.7%
C[C@H](Nc1cc(-c2cnn(C)c2)cc(Nc2cnccn2)n1)c1ccc(F)cc1.O=C(O)/C=C\C(=O)O [Form-I + Form-II (1:1)],Crystal form after 1 day,[1]; [7],Form-I
same,Crystal form after 5 days,[1]; [7],Form-I
same,Crystal form after 1 day,[1]; [8],Form-I
same,Crystal form after 5 days,[1]; [8],Form-I
same,crystal form transformation of mixed crystals,"[1]; after 5 days, in acetonitrile, ethyl acetate, and water-containing acetone at room temperature",all transformed to the Form-I crystal
same,Crystal form after 5 days,[1]; ethyl acetate saturated with Form-I,Form-I
